Results as given in PMC10147923, “Pain-causing stinging nettle toxins target TMEM233 to modulate NaV1.7 function” (Nature Communications, 2023).
Several values for one entry are separate records, joined by “and”; a condition that tells them apart may be missing. Equal values may be shown once. Read-outs that look alike come from different tables or passages of the source. Positions of bridges follow the written chain, without caps; N, C: chain ends. Residues, ends and D or L forms follow the SMILES beside them.

Columns and labels:
[1] = system: Drosophila melanogaster; type: in vivo; settings: injection 0.5 nmol, affected/total
Experimental: To test for insecticidal activity, we injected ExTxA into three-day old Drosophila melanogaster females (average weight 0.875 mg). In total 77 D. melanogaster were used for this study: 52 individuals were each injected with 0.5 nmol (50 nL of a […] solution) ExTxA, while 25 individuals served as control group and were injected with vehicle control (3% acetonitrile, 0.1% bovine serum albumin in water) and scored by a blinded observer.

[2] = system: NaV1.8; type: cell-based, mouse
[3] = system: hNaV1.6; test: Persistent current, HEK293-hNaV1.6/β1; type: cell-based, human; settings: ExTxA 1 µM; individual cells
[4] = system: NaV1.7Advill knockout mice; test: Nocifensive behaviors after intraplantar injection, NaV1.7Advill mice; type: in vivo, mouse; settings: i.pl. ExTxA 10 nM
From the text: Tmem233^Cre animals were generated and genotyped as previously described, with a Kozak-Cre-pA cassette replacing the ATG start codon of the murine Tmem233 gene to produce a functional knockout in homozygous animals. NaV1.7^Advill mice lacking functional NaV1.7 in all sensory neurons were generated and genotyped as previously described[33] by crossing Advillin-Cre mice with floxed Scn9a animals in which loxP sites were inserted in introns flanking exons 14 and 15[34],[35]. NaV1.9^−/− mice and NaV1.8^Cre/Cre mice, in which Cre recombinase substitutes the translational start-site of NaV1.8, were generated and sequenced as previously described[34],[36],[37].
(§1) Nocifensive responses to intraplantar administration of ExTxA (5–10 nM) were assessed as previously described. In brief, ExTxA was diluted in sterile saline/0.1% BSA and administered by an intraplantar injection (40 μL) into a single hind paw of Tmem233^Cre/Cre, NaV1.7^Advill and wild-type littermate controls. Pain behaviors, consisting of paw licks or flinches, were counted from video recordings by a blinded investigator for up to 60 min following injection.

[5] = system: NaV currents in ND7/23 cells; test: Persistent current, ND7/23 cells; type: cell-based; settings: ExTxA 1 µM; individual cells
[6] = system: DRG neurons from Tmem233Cre/Cre knockout mice; test: Calcium imaging, Tmem233Cre/Cre DRG neurons; type: cell-based, mouse
Experimental: DRG from all spinal levels were isolated from male and female mice (wild-type C57BL/6 J, Tmem233^Cre/Cre, NaV1.8^Cre/Cre, NaV1.9^−/− or littermate controls) as previously described[36],[38],[39]. For Ca^2+ imaging experiments, DRG neurons were dissociated following incubation with 1% collagenase type IV (Worthington, New Jersey, USA) for 1.5 h (37 °C, 5% CO2) and 2.5% trypsin (Sigma-Aldrich, Montana, USA) for 15 min and resuspended in Dulbecco’s modified Eagle’s medium (DMEM) (Sigma-Aldrich, New South Wales, Australia) supplemented with 10% fetal bovine serum (FBS) (Thermofisher, Massachusetts, USA) and penicillin/streptomycin (Thermofisher, Massachusetts, USA). Following plating in 96-well poly-D-lysine–coated culture plates, isolated neurons were incubated for 24 h at 37 °C with 5% CO2 prior to imaging.
Dissociated DRG neurons from Tmem233^Cre/Cre and C57BL/6 mice were plated on PDL-coated 96-well black-walled imaging plates and loaded with Fluo-4 AM calcium indicator (5 μM) (Invitrogen, Massachusetts, USA) for 1 h in culture medium. Cells were washed with Hanks’ balanced salt solution containing 20 mM HEPES and then transferred to the recording chamber of a Nikon Ti-E Deconvolution inverted microscope equipped with a Lumencor Spectra LED light source. Fluorescence images (excitation, 485 nm; emission, 521 nm) were acquired at 1 frame per second using a ×20 objective. Following the recording of baseline fluorescence (20 s), cells were consecutively exposed to buffer control (0.1% BSA, t = 30 s), ExTxA (10 nM, t = 60 s), and 30 mM KCl (30 mM, t = 210 s). […] Cells responding to buffer control were excluded from analysis.

[7] = system: HEK293-NaV1.7 cells; type: cell-based, human; settings: ExTxA 1 µM; for ΔF/F in NaV1.7 HEK293: mean, n = 3
Experimental: HEK293-NaV1.7 cells were transfected with TMEM233, CRELD1, LMAN2L, MMGT1, RNF121 and STT3B and co-transfected with five plasmids coding for the Glycosylphosphatidylinositol (GPI) complex (GPAA1, PIGK, PIGS, PIGU, PIGT) using Lipofectamine 2000. After 24 h, transfected cells were harvested and plated at a density of 10,000–15,000 cells per well on black-walled 384-well imaging plates. Plated cells were cultured for a further 24 h at 37 °C and 5% CO2. FLIPR (Fluorescent Imaging Plate Reader) Red membrane potential assay dye (Molecular Devices, California, USA) was diluted in physiological salt solution according to the manufacturer’s instructions (PSS, in mM: NaCl 140, glucose 11.5, HEPES 10, KCl 5.9, MgCl2 1.4, NaH2PO4 1.2, NaHCO3 5, CaCl2 1.8, pH 7.4). Growth medium was removed from the plate and replaced with 20 µL of FLIPR Red membrane potential assay dye per well and incubated in the dark at 37 °C for 60 min. […] Fluorescence responses to ExTxA were computed as the maximum change in fluorescence over baseline (ΔF/F0) using ScreenWorks (Molecular Devices, Version 5.1.2.94).

[8] = system: hNaV1.3; test: Persistent current, HEK293-hNaV1.3/β1; type: cell-based, human; settings: ExTxA 1 µM
[9] = system: wild-type C57BL/6 mice; test: Nocifensive behaviors after intraplantar injection, wild-type mice; type: in vivo, mouse; settings: wt
Experimental: as §1

CC[C@H](C)[C@@H]1NC(=O)[C@H](CCCNC(=N)N)NC(=O)[C@H](Cc2ccccc2)NC(=O)[C@H](CC(C)C)NC(=O)[C@H](CO)NC(=O)[C@@H]2CSSC[C@@H]3NC(=O)[C@H]([C@@H](C)O)NC(=O)[C@H](CSSC[C@H](NC(=O)[C@H](CCCNC(=N)N)NC(=O)[C@@H]4CCCN4C(=O)[C@@H](N)CC(C)C)C(=O)N[C@@H](CC(=O)O)C(=O)N[C@@H](CO)C(=O)N4CCC[C@H]4C(=O)N[C@@H](Cc4ccccc4)C(=O)N2)NC(=O)[C@H](CCCCN)NC(=O)[C@H](CC(=O)O)NC(=O)CNC(=O)[C@H](CSSC[C@@H](C(=O)N[C@H](C(=O)N2CCC[C@H]2C(=O)N[C@@H](CC(=O)O)C(=O)N[C@H](C(=O)O)C(C)C)C(C)C)NC(=O)[C@H](CC(C)C)NC(=O)CNC(=O)[C@H](Cc2ccccc2)NC(=O)[C@H]([C@@H](C)CC)NC(=O)[C@@H]2CCCN2C(=O)[C@H](CC(C)C)NC(=O)[C@@H]2CCCN2C(=O)[C@H](C(C)C)NC3=O)NC(=O)[C@H](CC(C)C)NC(=O)CNC1=O [ExTxA, excelsatoxin A] (H-LPRCDSPFCSLFRIGLCGDKCTCVPLPIFGLCVPDV-OH; disulfide 4-21, 9-23, 17-32)
paralysis ([1]; after 15 min, control 1/25): 2/52 | death ([1]; after 2 h, control 0/25): 1/52 | DRG NaV1.8 Δ persistent current (I40 ms/Ipeak) [2]: 0.050 ± 0.015 | persistent current (I40 ms/Ipeak) [3]: -0.07037 and 0.003531 and 0.01691 and 0.001263 and 0.000702 and -0.00068 and -0.03041 and 0.01768 | Difference between means (B - A), wildtype minus Scn9a-/- [4]: 279.3 ± 22.82 | nocifensive responses in knockout mice [4]: abolished | cumulative flinches (60 min) ([4]; 40 μL, NaV1.7Advill, mean, n = 4): 40.0 ± 6.5 and 40 | cumulative flinches (60 min) ([4]; NaV1.7Advill (Scn9a-/-), individual animals): 32 and 43 and 57 and 28 | persistent current (I40 ms/Ipeak) [5]: 0.0148 and -0.04643 and -0.01725 and -0.02481 and 0.06313 and -0.01347 and 0.009823 and -0.02206 and -0.05173 and 0.0293 and -0.02358 | ExTxA-induced DRG Ca2+ responses ([6]; ExTxA 10 nM, Tmem233Cre KO, Fluo-4, >1.5-fold increase, mean ± SEM, n = 7 wells): 22.33 ± 1.942 % neurons activated | calcium imaging response (Fig. 3f) ([6]; KO, individual values, one line each (n = 7)): 24.6269 and 21.831 and 19.2118 and 28.0374 and 12.6582 and 26.1905 | calcium imaging response (Fig. 3f), Mean ([6]; KO, mean, number of values 7, Std. Deviation 5.137, SEM 1.942): 22.33 | calcium imaging response (Fig. 3f), Median ([6]; KO, median, number of values 7): 23.77 | ΔF/F in NaV1.7 HEK293 ([7]; Control (untransfected NaV1.7)): 0.016 ± 0.013 and 0.01598 | DF/F ([7]; GPAA1+PIG K, S, T, U, replicate 1): -0.0084 | DF/F ([7]; GPAA1+PIG K, S, T, U, replicate 2): -0.00023 | DF/F ([7]; GPAA1+PIG K, S, T, U, replicate 3): -0.01147 | ΔF/F in NaV1.7 HEK293 ([7]; Lman2L): 0.014 ± 0.0048 and 0.01413 | DF/F ([7]; Lman2L, replicate 1): 0.02361 | DF/F ([7]; Lman2L, replicate 2): 0.01087 | DF/F ([7]; Lman2L, replicate 3): 0.007914 | DF/F ([7]; Mmgt1, replicate 1): -0.00761 | DF/F ([7]; Mmgt1, replicate 2): -0.00711 | DF/F ([7]; Mmgt1, replicate 3): -0.00296 | DF/F ([7]; RNF121, replicate 1): -0.01721 | DF/F ([7]; RNF121, replicate 2): -0.01119 | DF/F ([7]; RNF121, replicate 3): 0.007423 | ΔF/F in NaV1.7 HEK293 ([7]; Stt3b): 0.013 ± 0.00098 and 0.01262 | DF/F ([7]; Stt3b, replicate 1): 0.01077 | DF/F ([7]; Stt3b, replicate 2): 0.013 | DF/F ([7]; Stt3b, replicate 3): 0.01408 | DF/F ([7]; Untransfected Nav1.7, replicate 1): 0.03099 | DF/F ([7]; Untransfected Nav1.7, replicate 2): -0.01092 | DF/F ([7]; Untransfected Nav1.7, replicate 3): 0.02788 | persistent current (I40 ms/Ipeak) ([8]; individual cells): 0.0261 and 0.07967 and 0.01209 and 0.007119 and 0.06666 and 0.04746 and 0.006524 and 0.006085 and 0.07156 and 0.01737 and 0.02558 and -0.00907 and 0.002307 and 0.02027 (2×) and 0.01594 and 0.04935 and 0.06033 and 0.03164 and 0.000895 and 0.0334 and 0.008347 and 0.02877 | Δ persistent current (I40 ms/Ipeak; buffer cf. ExTxA) ([8]; mean): 0.0265 ± 0.0049 and 0.02645 | cumulative flinches (60 min) ([9]; i.pl. ExTxA 10 nM, 40 μL, mean, n = 4): 319.3 ± 21.9 and 319.3 | cumulative flinches (60 min) ([9]; i.pl. ExTxA 10 nM, individual animals): 318 and 332 and 366 and 261 | ExTxA-induced pain behaviours (cumulative paw licks and flinches over 40 min) ([9]; i.pl. ExTxA 10 nM, mean ± SEM, n = 17): 234.2 ± 27.7 | nocifensive behaviors, 0-40 min combined (Fig. 3g) ([9]; 0-40 min, individual animals, one line each (n = 17)): 186 and 191 and 216 and 226 and 100 and 220 and 228 and 281 and 150 and 168 and 177 and 96 and 381 and 537 and 153 | nocifensive behaviors, 0-40 min combined, mean (Fig. 3g) ([9]; 0-40 min, mean, n = 17): 234.2
